Results reported in BindingDB's records for doi:10.1021/jm801643b (Vanderbilt University, 2009).

biological target: Sterol 14-alpha demethylase (Trypanosoma cruzi (strain CL Brener), UniProt Q7Z1V1); assay: Spectral Titration of TCCYP51; settings: pH 7.4; 24 °C
Experimental: As a cysteine-coordinated hemoprotein, sterol 14-alpha-demethylase responds spectrally to any perturbations in the area surrounding the heme iron. These spectral responses can be used to estimate the apparent dissociation constants (Kd) of the enzyme/ligand complexes. […] The tested compounds were added in 1 ul aliquots to the test cuvette until the maximum in spectral response was reached. Equal volumes of DMSO were added to the reference cuvette. The apparent Kd values were determined from the equilibrium titration curves by plotting absorbance changes against the concentration of free ligand and fitting the data to a rectangular hyperbola using SigmaPlot Statistics.

Sequence of Sterol 14-alpha demethylase (Q7Z1V1 whole entry): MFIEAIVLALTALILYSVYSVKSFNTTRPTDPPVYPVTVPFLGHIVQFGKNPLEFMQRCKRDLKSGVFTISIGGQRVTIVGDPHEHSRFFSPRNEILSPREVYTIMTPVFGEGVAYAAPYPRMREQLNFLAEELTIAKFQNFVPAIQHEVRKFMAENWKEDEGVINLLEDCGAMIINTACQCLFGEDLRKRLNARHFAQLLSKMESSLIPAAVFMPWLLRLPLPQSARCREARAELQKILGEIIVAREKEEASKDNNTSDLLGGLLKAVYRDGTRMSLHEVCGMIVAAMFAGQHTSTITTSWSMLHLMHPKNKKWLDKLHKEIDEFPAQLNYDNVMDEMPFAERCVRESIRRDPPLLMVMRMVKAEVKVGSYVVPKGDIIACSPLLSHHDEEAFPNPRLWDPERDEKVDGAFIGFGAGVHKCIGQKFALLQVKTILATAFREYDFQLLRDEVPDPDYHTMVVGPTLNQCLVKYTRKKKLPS

Structure (SMILES) | Kd
COc1ccc2c(c1)c(CC(=O)NCc1ccc(C(F)(F)F)nc1)c(C)n2C(=O)c1ccc(Cl)cc1 [Indomethacin-amide derivative, 19] | 0.56 µM
COc1ccc2c(c1)c(CC(=O)NCc1ccc(Cl)nc1)c(C)n2C(=O)c1ccc(Cl)cc1 [Indomethacin-amide derivative, 18] | 0.26 µM
COc1ccc2c(c1)c(CC(=O)Nc1cccnc1C)c(C)n2C(=O)c1ccc(Cl)cc1 [Indomethacin-amide derivative, 13] | 7.6 µM
